Paper PMC7934925, “A GRM7 mutation associated with developmental delay reduces mGlu7 expression and produces neurological phenotypes” (JCI Insight, 2021)

How the values were obtained:
[1] = target: T1, mGlu7 (HA-mGlu7-I154T) (Homo sapiens, UniProt Q14831, I154T); experiment: thallium flux assay (GIRK) in HEK cells stably expressing the receptor, agonist concentration-response; format: cell-based
T1 construct: gene GRM7; full-length human mGlu7a isoform, HA-tagged, I154T, stably expressed in HEK/GIRK cells

[2] = target: T2, mGlu7 (HA-mGlu7-WT) (Homo sapiens, UniProt Q14831); experiment: as above; format: cell-based
T2 construct: gene GRM7; full-length human mGlu7a isoform (NM_000844.4), HA-tagged, stably expressed in HEK/GIRK cells
T2 sequence (Q14831 35-915): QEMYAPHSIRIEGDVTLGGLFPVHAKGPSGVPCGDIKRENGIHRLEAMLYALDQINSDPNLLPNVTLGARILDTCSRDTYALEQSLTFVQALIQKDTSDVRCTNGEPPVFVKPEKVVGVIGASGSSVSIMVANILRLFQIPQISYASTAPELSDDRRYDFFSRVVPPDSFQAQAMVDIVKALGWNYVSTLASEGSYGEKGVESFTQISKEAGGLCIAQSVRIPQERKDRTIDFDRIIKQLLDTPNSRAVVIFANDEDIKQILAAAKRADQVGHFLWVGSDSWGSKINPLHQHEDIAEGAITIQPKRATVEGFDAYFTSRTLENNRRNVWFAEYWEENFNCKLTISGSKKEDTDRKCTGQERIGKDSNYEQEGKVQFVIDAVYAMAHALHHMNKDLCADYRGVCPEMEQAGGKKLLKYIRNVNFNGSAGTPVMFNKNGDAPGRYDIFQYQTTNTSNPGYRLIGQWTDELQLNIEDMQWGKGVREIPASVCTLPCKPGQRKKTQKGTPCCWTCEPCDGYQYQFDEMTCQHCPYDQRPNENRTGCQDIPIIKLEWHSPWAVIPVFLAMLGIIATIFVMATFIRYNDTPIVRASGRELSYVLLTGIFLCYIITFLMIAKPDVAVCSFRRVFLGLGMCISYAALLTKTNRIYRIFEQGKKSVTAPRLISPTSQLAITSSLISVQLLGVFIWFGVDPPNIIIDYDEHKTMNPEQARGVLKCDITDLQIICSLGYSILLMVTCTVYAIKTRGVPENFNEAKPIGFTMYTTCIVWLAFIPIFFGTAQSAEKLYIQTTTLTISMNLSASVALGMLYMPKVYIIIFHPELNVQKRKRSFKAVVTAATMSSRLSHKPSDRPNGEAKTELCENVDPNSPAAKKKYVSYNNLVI

T1 sequence (Q14831 35-915 I154T): as the sequence (Q14831 35-915) above, with I120T counted along it

Q: Which results are given for `N[C@@H](CCP(=O)(O)O)C(=O)O` [L-AP4]?
A: EC50 [1]: 540 µM; EC50 [2]: 176 µM
